Laboratory results as given in patent US20180036270A1, “A METHOD OF PROTECTING AGAINST CARBONYL STRESS INDUCED ISCHEMIA-REPERFUSION INJURY IN THE DIABETIC BRAIN VIA ADMINISTRATION OF N-ACETYLCYSTEINE” (Board of Supervisors of Louisiana State University and …, priority 2015, published 2018).
Entries after “also recorded” stand apart in the source; their conditions may differ.

Tests used:
[1] = system: brain GSH and cysteine contents; experiment: Brain GSH and cysteine by HPLC; format: in vivo, mouse
Excerpt: (§1) Four-week-old male C57BL/6J mice, weighing 18-20 g, were purchased from Jackson Laboratory. These mice were maintained at the Animal Facility of the Louisiana State University Health Sciences Center—Shreveport. Animal care and use in the experiments follow the guidelines in the Guide for the Care and Use of Laboratory Animals, published by the US National Institutes of Health. Following adaptation for 1 week, the mice were divided randomly into 4 groups: non-treated sham operation group (NT-sham group, n=6), non-treated I/R group (NT-I/R group, n=5), vehicle I/R group (Veh-I/R group, n=24), and streptozotocin I/R group (STZ-I/R group, n=19). […] On day 7, mice whose plasma glucose was more than 300 mg/dl were deemed to be diabetic. From diabetes onset at week 1, a group of diabetic mice were given 0.2 mM NAC in the drinking water for 3 weeks (n=3; a total of 4 weeks diabetes, 3 weeks NAC) or 1 week (n=9; a total of 2 weeks diabetes, 1 week NAC). Veh-I/R mice were injected with citrate buffer for consecutive 5 days, and a group of Veh-treated mice were given 0.2 mM NAC for 2 weeks in the drinking water before the ischemia operation (Veh+NAC group, n=8). Another Veh-treated mice were injected (intraperitoneally, 12 hr interval) with 0.5M BSO 24 h before the ischemia operation and during the 24 h reperfusion period (Veh+BSO group, n=10). All mice were 9 weeks old at sacrifice.
Tissue contents of GSH, cysteine and γGC were determined by high-performance liquid chromatography (HPLC). […] Separation of GSH, cysteine and γGC derivatives whose peaks were detected at 365 nm wavelength was performed on a 250×4.6-mm Alltech Lichrosorb NH2 10 μm anion-exchange column. GSH, cysteine and γGC contents were quantified by comparison to standards derivatized in the same manner. Protein pellets were dissolved in 1 M NaOH for protein quantitation and GSH, cysteine and γGC concentrations were expressed as nanomoles per mg protein.

[2] = Plasma glucose levels in diabetic mice; format: in vivo, mouse; details: 2 mM NAC for 3 weeks, 4 week diabetic mice
Method: Plasma levels in diabetic mice were elevated at ˜[…] which was 3-fold higher than controls (˜200 mg/dL). The percent (%) brain infarct area in vehicle- and STZ treated mice is linearly correlated with the plasma glucose level.
as §1, with “From diabetes onset at week 1, a group of diabetic mice were given 0.2 mM NAC in the drinking water for 3 weeks (n=3; a total of 4 weeks diabetes, 3 weeks NAC) or 1 week (n=9; a total of 2 weeks diabetes, 1 week NAC). Veh-I/R mice were injected with citrate buffer for consecutive 5 days, and a group of Veh-treated mice were given 0.2 mM NAC for 2 weeks in the drinking water before the ischemia operation (Veh+NAC group, n=8).” left out

[3] = system: brain protein carbonyl contents; experiment: Assay of brain protein carbonyls; format: in vivo, mouse; details: 2 week diabetic mice, NAC 1 week
Method: The extent of protein glycation was determined by measuring total protein carbonyl contents. Briefly, the brain homogenate was incubated with 10 mM of 2, 4-dinitro-phenylhydrazine (DNPH) in 2M hydrochloride acid (1:2 volume) for 1 h followed by precipitation with trichloroacetic acid (final concentration 10%). Following centrifugation, the precipitant was washed 3 times with ethanol-ethyl acetate (1:1) to remove free DNPH. The pellets were redissolved in 0.6 ml of 6 M guanidine hydrochloride solution containing 20 mM potassium phosphate (pH=2.3 adjusted with trifluoroacetic acid) at 37° C., and the insoluble materials were removed by centrifugation for 3 min at 11000 g. The absorbance was monitored at 366 nm, and protein carbonyl contents quantified using the extinction coefficient of 22000 M^−1 cm^−1.

[4] = system: cerebral microvessels of STZ diabetic mice; experiment: Light-dye induced thrombosis in cerebral arterioles and venules of STZ diabetic mice; format: in vivo, mouse
[5] = system: blood-brain barrier (BBB); experiment: Blood-brain barrier permeability by Evans Blue extrusion; format: in vivo, mouse; details: STZ mice, NAC 3 weeks
[6] = system: STZ diabetic mice; experiment: Tail bleed time as measure of coagulation; format: in vivo, mouse; details: 20 week diabetic mice; NAC 2 mM in drinking water for 3 weeks
Method: Turning to FIG. 24, as a measure of coagulation, tail bleed time was determined in animals that were diabetic for 20 weeks.

[7] = system: diabetic mice with transient ischemic attacks; experiment: Thrombosis after transient ischemic attack (TIA) in diabetic mice; format: in vivo, mouse; details: diabetes+TIA mice given NAC
[8] = system: human brain microvascular endothelial cell; experiment: Endothelial barrier permeability by transendothelial electrical resistance; format: cell-based; details: MG with NAC
Method: Moreover, treatment with 100 μM MG in rat thoracic aortic rings for 24 h decreases acetylcholine-induced vascular relaxation via a reduction in p-eNOS (Ser1177) and p-AMPKα (Thr172). MG can reduce endothelial angiogenesis through RAGE-mediated, ONOO(^−)-dependent and autophagy-induced VEGFR2 degradation. […] This is exacerbated by GSH synthesis inhibition and prevented by NAC. The enhanced MG concentration in diabetic patients can also directly contribute to the platelet dysfunction associated with diabetes. Platelet dysfunction is characterized by hyperaggregability and reduced thrombus stability via potentiating thrombin-induced platelet aggregation and dense granule release, but inhibiting platelet spreading on fibronectin and collagen. Given that endothelial dysfunction and enhanced platelet activation could promote stroke, these studies indicate that MG can contribute to ischemic brain injury.

[9] = 60 mg/kg/d over 8-75 months in young children; cited from earlier work

Question: With `CC(=O)N[C@@H](CS)C(=O)O` [NAC, N-acetylcysteine] as the compound, how does the “brain GSH concentrations” value ([1]; STZ diabetic mice, NAC in drinking water 1 or 3 weeks) read?
Answer: significant increases in tissue GSH levels; also recorded: significantly higher; also recorded: increased

Question: What about the brain cysteine levels ([1]; vehicle and STZ diabetic mice given NAC) of the same compound?
Answer: significant decrease; also recorded: significantly decreased

Question: And the plasma glucose levels [2]?
Answer: did not alter

Question: What about the “brain protein carbonyl contents” value [3] of the same compound?
Answer: highly effective in attenuating; also recorded: decreased significantly; also recorded: significantly attenuated

Question: And the “thrombosis onset and cessation times in cerebral venules and arterioles” value ([4]; 6 and 20 week diabetic mice, NAC 2 mM in drinking water for 3 weeks)?
Answer: provided protection against the accelerated thrombosis in both types of vessels

Question: And the “time to onset of thrombosis in brain microvessels” value ([4]; 20 week diabetic mice, NAC 2 mM in drinking water for 1 week)?
Answer: decreases the accelerated onset of thrombosis

Question: What about the “leakage of Evans Blue (BBB permeability)” value [5] of the same compound?
Answer: significantly decreased

Question: What about the tail bleed time [6] of the same compound?
Answer: prevented this accelerated coagulation; also recorded: reversed

Question: What about the thrombosis time [7] of the same compound?
Answer: some improvement

Question: And the “MG-induced endothelial barrier permeability” value [8]?
Answer: prevented

Question: And the tolerability [9]?
Answer: well-tolerated
